What was measured:
[1] = test system: Pancreatic Cancer Cells (PaCa2); experiment: Real-time PCR Apoptosis Array; type: cell-based; conditions: 100 uM Q10, various times
Protocol: Experiments were carried out essentially as described above.

[2] = test system: Isocitrate Dehydrogenase-1 (IDH-1); experiment: Western blot of IDH1 levels in normal and cancer cells; type: cell-based, human; conditions: PACA2, 5g48-100
Protocol: The whole cell pellets were resuspended one at a time in 1 mL of C7 buffer and transferred to labeled 15 mL tubes. The samples were then sonicated in the cold room on ice using 6 sonic pulses with the setting at #14. The samples were spun for a short time to 2500 g after sonication and the samples transferred to 2 ml tubes. The pH was verified of each sample (pH should be 9.0) using the foam remaining in the […] sample tubes.
Alkylation and reduction of samples was performed for each sample by adding 10 ul of 1M acrylamide, 25 ul of tributylphoshene and incubation for 90 mins with intermittent mixing. After incubation, 10 ul of 1M DTT was added and the tubes were spun at 20,000 g at 20 deg C. for 10 minutes and transferred the supernatant to labeled Amicon Ultra centrifugal filter units with a 10 k cut off (Millipore catalog #UFC 801024). The samples were spun for 15 minutes at 2500 g in 2 intervals. The conductivity was measured for Chaps alone as well as the samples using a conductivity meter. If the conductivity of samples is high, then 1 ml of chaps was added for buffer exchange and spun again at 2500 g until the volume was down to 250 ul. […]
The samples were processed as per standard protocols as described above and the amount of protein in each of the samples was determined by Bradford assay. […]

SKMEL-28 mitochondria = experiment: 2-D gel electrophoresis of mitochondria enriched samples; type: cell-based
variety of cell types = experiment: Western blot analysis (Bcl-xL, Vimentin, oxidative phosphorylation complexes, mitochondrial membrane integrity proteins); type: cell-based; conditions: 50 or 100 μM Q10
Protocol: Approximately 50 μg of protein were assayed per sample by immunoblotting. All treatments were run in triplicate with controls. […] The primary antibodies were incubated overnight at 4 degrees C. in a 5% BSA and TBST solution. Secondary antibodies were incubated for one hour at 4 degrees. All antibodies were purchased from Cell Signaling Technology. Antibodies were used at a ratio of 1:1000, with the exception of βActin at a ratio of 1:5000. Blots were developed and results were quantified using the NIH Java based densitometer analysis software Image J. All blots were also probed for and normalized to their respective βActin expression.
The first experiment processed and evaluated by Western blot and 2-D gel electrophoresis was carried out on the skin cancer cell line SKMEL-28.
A variety of cell types were evaluated by Western blot analysis against an antibody for Bcl-xL (FIG. 14), an antibody for Vimentin (FIG. 15), a series of antibodies for mitochondrial oxidative phosphorylation function (FIGS. 16-21) and against a series of antibodies related to mitochondrial membrane integrity (FIGS. 22-27).

COC1=C(OC)C(=O)C(C/C=C(\C)CC/C=C(\C)CC/C=C(\C)CC/C=C(\C)CC/C=C(\C)CC/C=C(\C)CC/C=C(\C)CC/C=C(\C)CC/C=C(\C)CCC=C(C)C)=C(C)C1=O [Q10, Coenzyme Q10]
mRNA of ABL1, AKT1, Bcl2L1, BclAF1, CASP1, CASP2, CASP6, CIDEA, FADD, LTA, TNF, TNFSF10A and TNFSF10 [1]: modulated | IDH1 Normalized Intensity (HASMC vs. PACA2) [2]: 860 | PDIA3 (ER60 protein), spot 110: Response (SKMEL-28 mitochondria; 100 μM Q10, 19 and 48 hr): Up at 19 and 48 hr | Unknown, spot 131: Response (SKMEL-28 mitochondria; 100 μM Q10, 19 and 48 hr): drops more for 19 | CCDC58, spot 75: Response (SKMEL-28 mitochondria; 100 μM Q10, 48 hr): Up at 48 hr | Unknown protein, spot 11: Response (SKMEL-28 mitochondria; 100 μM Q10, after 6 hr): drop to low levels | Beta-Actin, spot 202: Response (SKMEL-28 mitochondria; 100 μM Q10, only at 19 hr): Up only at 19 hr | KRT10 (Keratin 10), spot 185: Response (SKMEL-28 mitochondria; 100 μM Q10, only at 19 hr): Up only at 19 hr | MLEC (Malectin), spot 246: Response (SKMEL-28 mitochondria; 100 μM Q10, only at 19 hr): Up only at 19 hr | levels of examined proteins (Bcl-xL, Vimentin, oxidative phosphorylation and mitochondrial membrane integrity proteins) (variety of cell types): upregulated or downregulated

Reference: US9205064B2, “Methods for the diagnosis of oncological disorders using epimetabolic shifters, multidimensional intracellular molecules, or environmental influencers” (Berg LLC, priority 2009, dated 2015)
